Experimental data taken from PubChem BioAssay (NCI).
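Dose response: 5 concentrations. Exposure: 48 h. Format: 96-well plates. Endpoint: linear interpolation; highest concentration if not reached. Abbreviation: GI50, concentration required for 50% inhibition of growth. TGI marks complete inhibition of growth.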

Key:
Experiment in all cases: NCI anticancer screen, dose series, 48 h
SR leukemia = test system: SR leukemia
A498 renal = test system: A498 renal
LOX IMVI melanoma = test system: LOX IMVI melanoma
MCF7 breast = test system: MCF7 breast
HL-60(TB) leukemia = test system: HL-60(TB) leukemia
CCRF-CEM leukemia = test system: CCRF-CEM leukemia
OVCAR-8 ovarian = test system: OVCAR-8 ovarian
ACHN renal = test system: ACHN renal
MDA-MB-435 = test system: MDA-MB-435
HCT-15 colon = test system: HCT-15 colon

SMILES	TGI (SR leukemia)	TGI (A498 renal)	TGI (LOX IMVI melanoma)	TGI (MCF7 breast)	TGI (HL-60(TB) leukemia)	TGI (CCRF-CEM leukemia)	TGI (OVCAR-8 ovarian)	TGI (ACHN renal)	TGI (MDA-MB-435)	TGI (HCT-15 colon)	GI50 (SR leukemia)	GI50 (A498 renal)	GI50 (LOX IMVI melanoma)	GI50 (MCF7 breast)	GI50 (HL-60(TB) leukemia)	GI50 (CCRF-CEM leukemia)	GI50 (OVCAR-8 ovarian)	GI50 (ACHN renal)	GI50 (MDA-MB-435)	GI50 (HCT-15 colon)
CCOC(=O)c1ccc(-n2cnc(-c3ccc([N+](=O)[O-])cc3)c2)cc1	> 100 µM	> 100 µM	> 100 µM	> 100 µM	> 100 µM	> 100 µM	> 100 µM	> 100 µM	> 100 µM	> 100 µM										
COc1nc(N)nc2c1ncn2C1CC(O)C(CO)O1 (stereo not given)	> 100 µM	> 100 µM	> 100 µM	> 100 µM	> 100 µM	> 100 µM	> 100 µM	> 100 µM	> 100 µM	> 100 µM										
CCN1CCN(CCNc2nccc(-c3c(-c4ccc(F)c(O)c4)nc4occn34)n2)S1(=O)=O	> 100 µM	> 100 µM	> 100 µM	> 100 µM	> 100 µM	> 100 µM	> 100 µM	> 100 µM	> 100 µM	> 100 µM	7.46 µM	5.15 µM	3.76 µM	3.82 µM	4.16 µM	2.2 µM	3.63 µM	3.44 µM	3.03 µM	3.93 µM
CCC1=C(c2ccc(OC)cc2)C(C)(C)Oc2c1ccc(O)c2CN1CCCC1	3.63 µM	7.95 µM	2.8 µM	3.2 µM	3.12 µM	5.38 µM	4.94 µM	> 100 µM	4.03 µM	4.44 µM	0.927 µM	1.23 µM	1.46 µM	1.57 µM	0.871 µM	1.86 µM	2.11 µM	3.6 µM	1.71 µM	1.91 µM
O=S(=O)(N=C1C(Cl)=C(Cl)C(=NS(=O)(=O)c2ccccc2)C(Cl)=C1Cl)c1ccccc1	> 100 µM	50.9 µM	43.1 µM	> 100 µM	> 100 µM	90.9 µM	50.6 µM	65 µM	68.3 µM	> 100 µM	12.7 µM	15.9 µM	15.4 µM	18 µM	16.4 µM	14.8 µM	17.7 µM	20.5 µM	20.1 µM	24.5 µM
Cc1c(Cn2c(C)nc3c(C(=O)O)cc(N4CCOCC4)cc32)cccc1C(F)(F)F	> 100 µM	0.319 µM	> 100 µM	> 100 µM	> 100 µM	> 100 µM	> 100 µM	> 100 µM	> 100 µM	> 100 µM	51.3 µM	0.0339 µM	60.7 µM	42.7 µM	72.9 µM	44.3 µM	33.7 µM	8.73 µM	66 µM	4.58 µM
COc1cc(CCC[P+](c2ccccc2)(c2ccccc2)c2ccccc2)c(OC)c2c1OCO2	13.3 µM	4.28 µM	12.1 µM	12.9 µM	2.35 µM	> 100 µM	24.2 µM	21 µM	5.91 µM	> 100 µM	1.1 µM	1.41 µM	2.48 µM	1.82 µM	0.387 µM	1.61 µM	2.36 µM	4.07 µM	0.494 µM	13.4 µM
CC1SC(c2ccccc2Cl)N(NC(=O)C(O)c2ccccc2)C1=O (stereo not given)	> 100 µM	> 100 µM	> 100 µM	> 100 µM	> 100 µM	> 100 µM	> 100 µM	> 100 µM	> 100 µM	> 100 µM	40 µM	67.8 µM	> 100 µM	54.6 µM	82.4 µM	> 100 µM	> 100 µM	55.8 µM	> 100 µM	66.9 µM
CC1(C)N=C(N)N=C(N)N1c1ccc(CNC(=O)Nc2ccc(S(=O)(=O)F)c(Cl)c2)c(Cl)c1	> 100 µM	> 100 µM	> 100 µM	> 100 µM	> 100 µM	> 100 µM	> 100 µM	> 100 µM	> 100 µM	> 100 µM	0.167 µM	9.5 µM	0.396 µM	0.536 µM	0.377 µM	0.477 µM	2.08 µM	5.28 µM	0.183 µM	4.87 µM
